Marks after values point to notes of the source that are not given here.
Assays:
[1] = tested on: Hbb^d3th/d3th mice; test: Effect on homozygous β-thalassemia mice (CBC analysis); type: in vivo; set-up: HGB Hemoglobin content: unit not given here
Method: Throughout the experimental stage, animals were housed in cages in an animal room with 24-hour continuous central air conditioning, temperature set at 20-26° C., relative air humidity set at 40-70%, and a 12-hour light/dark cycle. All animals had free access to food (irradiated sterile feed) and water (prepared by an ultrapure water system). The mouse strain used in the experiment was: Hbb^d3th/d3th mice; female and male, 9-15 weeks old, weighing 25-30 grams. The breeding method involved one male paired with two females. Male mice with the Hbb^d3th/d3th genotype, and female mice with the Hbb^d3th/+ genotype were selected. At one week of age, tissue DNA was extracted from toe clips of offspring. Subsequently, PCR amplification and agarose gel electrophoresis for band separation were used for genotyping. Before the experiment, secondary genotyping was performed on mice of appropriate age, and mice with no significant differences in body weight and appearance were selected as experimental animals. Vehicle 1 (0.1 M meglumine aqueous solution) was prepared by dissolving an appropriate amount of meglumine (0.586 g) in an appropriate amount of deionized water (30 mL) with stirring to prepare the vehicle. After preparation, the vehicle was aliquoted into daily doses and stored at 5±3° C. Before administration, it was stirred at room temperature for at least 10 minutes and stirred continuously during the dosing process.
Comp-1: The required amount of Comp-1 was weighed, completely dissolved in an appropriate volume of Vehicle 1, with stirring and sonicating to form a solution. After visually observing dissolution, vehicle was gradually added to reach the specified volume. Before daily dosing, the formulations (including vehicle) were removed from refrigerator and allowed to reach room temperature. Formulations were stirred at room temperature for at least 10 minutes before administration and stirred throughout the dosing process. The route of administration was oral gavage for all groups, with a dosing volume of 10 mL/kg for all groups, and a dosing frequency of daily for a total of 42 days.
On days 0, 15, 29, and 43 of dosing, 50 μl of blood was collected from orbit of mice, stored at 4° C., and allowed to return to room temperature before analysis. Samples were then gently mixed and added to pre-prepared diluent (blood:diluent=1:6). Data were obtained using the instrument's pre-dilution mode for detection. Data statistics were processed and analyzed using Microsoft Office Excel (Microsoft Corporation, version 2013, Redmond, WA, USA) and GraphPad Prism 7.0. Red blood cell counts and percentages were reported with two significant FIGURES. T-test analysis was used for comparisons of blood cell counts and percentages between groups and within groups at different time points.

[2] = tested on: Townes SCD model mouse; test: Effect on SCD anemia mice (RBC, Hb, HCT); type: in vivo
Method: Throughout the experimental stage, animals were housed in cages in an animal room with 24-hour continuous central air conditioning, temperature set at 20-26° C., relative air humidity set at 40-70%, and a 12-hour light/dark cycle. All animals had free access to food and sterilized drinking water. The animal strain was B6·Cg-Hbb^tm2(HBG1,HBB)Tow/Hbat^ml(HBA)Tow/ShmtJ mice, a Townes SCD model mouse where mouse endogenous hemoglobin is replaced by knocked-in human hemoglobin. Two weeks after birth, mice were ear-punched for identification, and the ear tissue was collected for PCR analysis to determine its genotype. Mice confirmed as B6·Cg-Hbb^tm2(HBG1,HBB)Tow/Hbat^ml(HBA)Tow/ShmtJ were grouped. […] Blood sampling was performed every other week. Mice showing symptoms of anemia were selected for dosing. Animals were randomly divided into groups, 6 animals per group: Vehicle control group (0.1 M meglumine aqueous solution; oral gavage; volume: 6.67 mL/kg), Comp-1 group (30 mpk; oral gavage; volume: 6.67 mL/kg), and EPO group (50 U/30 g body weight; SC injection; MyBioSource, cat. #: MBS650094, erythropoietin alpha). Dosing was administered three times a week (TIW) for 4 consecutive weeks. On days 14 and 28 of dosing, 70 μL of blood was collected from orbit. Collected blood samples were placed in heparin-anticoagulant tubes. 15 μL of the blood sample from the anticoagulant tube was aspirated and added to an Element HT5 Veterinary Hematology Analyzer. RBC, Hb, and HCT in the blood were measured according to the instrument's operating instructions. Data analysis was performed using GraphPad Prism 9.0. […]

[3] = tested on: MDS model mice; test: Effect on MDS model mice (RBC, Hb, HCT); type: in vivo, C57 mice
Method: Throughout the experimental stage, animals were housed in cages in an animal room with 24-hour continuous central air conditioning, temperature set at 20-26° C., relative air humidity set at 40-70%, and a 12-hour light/dark cycle. All animals had free access to food and sterilized drinking water. The C57 mice used in the experiment contained three knocked-in genes in their genome: Vav1-Cre, LSL, and c-Myc(T58A/S62E). Only animals positive for all three genes were used in the experiment. Expression of Vav1-Cre can induce cleavage at the LSL site, thereby allowing tTA gene expression. After induction with Doxycycline, tTA can bind to promoter of the c-Myc(T58A/S62E) gene, driving its expression, so that the animals develop an MDS phenotype. When the mice reached approximately 8 weeks of age, modeling commenced. They were fed a special diet (containing 200 mg doxycycline per kg of feed) for 4 weeks. Mice were anesthetized on days 0, 14, and 28, and 70 μl of blood was collected from the orbit to measure RBC, Hb, and HCT levels, confirming successful establishment of the MDS model. Subsequently, the mice were randomly divided into 3 groups, with 10 mice per group: Vehicle control group (0.1 M meglumine), Comp-1 low-dose group (10 mg/kg), and Comp-1 high-dose group (30 mg/kg). The dosing or vehicle volume was 6.67 mL/kg. The dosing or vehicle frequency for each group was oral gavage three times per week (TIW) for 4 consecutive weeks. That is, from week 4 to week 8 constituted the treatment period. Mice were anesthetized 14 days (experimental week 6) and 28 days (experimental week 8) after the start of dosing, and 70 μl of blood was collected from the orbit. Collected blood samples were placed in heparin-anticoagulant tubes, and RBC, Hb, and HCT levels in the blood were measured. After blood collection at the final time point for each animal, the animals were euthanized, and corresponding organ tissues were collected for storage and potential future use. Detection instrument: Element HT5 Veterinary Hematology Analyzer; Supplier: HESKA. Data analysis was performed using GraphPad Prism 9.0.

[4] = tested on: MDS model mice; test: Effect on MDS model mice (RBC, Hb, HCT); type: in vivo, C57 mice; settings: 50 U/30 g
[5] = 30 mg/kg group, Before dosing Week 0
[6] = 30 mg/kg oral TIW, After 2 weeks of dosing Week 2
[7] = 30 mg/kg oral TIW, After 4 weeks of dosing Week 4
[8] = 10 mg/kg group, Before dosing Week 4
[9] = 10 mg/kg group, Pre-modeling Week 0
[10] = 10 mg/kg oral TIW, After 2 weeks of dosing Week 6
[11] = 10 mg/kg oral TIW, After 4 weeks of dosing Week 8
[12] = 30 mg/kg group, Before dosing Week 4
[13] = 30 mg/kg group, Pre-modeling Week 0
[14] = 30 mg/kg oral TIW, After 2 weeks of dosing Week 6
[15] = 30 mg/kg oral TIW, After 4 weeks of dosing Week 8
[16] = 30 mpk oral gavage TIW group, baseline, average of six mice
[17] = 30 mpk oral gavage TIW, end of the four-week experiment, average of five mice
[18] = 50 U/30 g SC TIW, After 2 weeks of dosing Week 2
[19] = 50 U/30 g SC TIW, After 4 weeks of dosing Week 4
[20] = 50 U/30 g group, Before dosing Week 0

O=C(O)CNC(=O)C1=C(O)C2(CCCC2)n2c(ccc2-c2ccccc2)C1=O [Comp-1, (6′-hydroxy-8′-oxo-3′-phenyl-8′H-spiro[cyclopentane-1,5′-indolizine]-7′-carbonyl)glycine]
HCT Hematocrit ([1]; 5 mpk group, Day 0 (pre-dose)): 27.58% | HGB Hemoglobin content ([1]; 5 mpk group, Day 0 (pre-dose)): 74.60 | RBC Red Blood Cell Count ([1]; 5 mpk group, Day 0 (pre-dose)): 7.90 10^12/L | HCT Hematocrit ([1]; 5 mpk oral daily, Day 15): 31.16# % | HGB Hemoglobin content ([1]; 5 mpk oral daily, Day 15): 81.20 | RBC Red Blood Cell Count ([1]; 5 mpk oral daily, Day 15): 8.35 10^12/L | HCT Hematocrit ([1]; 5 mpk oral daily, Day 29): 32.10## % | HGB Hemoglobin content ([1]; 5 mpk oral daily, Day 29): 83.00 | RBC Red Blood Cell Count ([1]; 5 mpk oral daily, Day 29): 8.59 10^12/L | HCT Hematocrit ([1]; 5 mpk oral daily, Day 43): 31.04## % | HGB Hemoglobin content ([1]; 5 mpk oral daily, Day 43): 80.20 | RBC Red Blood Cell Count ([1]; 5 mpk oral daily, Day 43): 8.58 10^12/L | HCT Hematocrit ([1]; 10 mpk group, Day 0 (pre-dose)): 26.20% | HGB Hemoglobin content ([1]; 10 mpk group, Day 0 (pre-dose)): 74.80 | RBC Red Blood Cell Count ([1]; 10 mpk group, Day 0 (pre-dose)): 7.90 10^12/L | HCT Hematocrit ([1]; 10 mpk oral daily, Day 15): 31.92## % | HGB Hemoglobin content ([1]; 10 mpk oral daily, Day 15): 83.60 | RBC Red Blood Cell Count ([1]; 10 mpk oral daily, Day 15): 8.60## 10^12/L | HCT Hematocrit ([1]; 10 mpk oral daily, Day 29): 33.02## % | HGB Hemoglobin content ([1]; 10 mpk oral daily, Day 29): 88.04 | RBC Red Blood Cell Count ([1]; 10 mpk oral daily, Day 29): 9.15# 10^12/L | HCT Hematocrit ([1]; 10 mpk oral daily, Day 43): 33.36### % | HGB Hemoglobin content ([1]; 10 mpk oral daily, Day 43): 89.40 | RBC Red Blood Cell Count ([1]; 10 mpk oral daily, Day 43): 9.30## 10^12/L | HCT Hematocrit ([1]; 15 mpk group, Day 0 (pre-dose)): 27.48% | HGB Hemoglobin content ([1]; 15 mpk group, Day 0 (pre-dose)): 75.00 | RBC Red Blood Cell Count ([1]; 15 mpk group, Day 0 (pre-dose)): 7.77 10^12/L | HCT Hematocrit ([1]; 15 mpk oral daily, Day 15): 34.50## % | HGB Hemoglobin content ([1]; 15 mpk oral daily, Day 15): 90.17 | RBC Red Blood Cell Count ([1]; 15 mpk oral daily, Day 15): 8.95# 10^12/L | HCT Hematocrit ([1]; 15 mpk oral daily, Day 29): 36.13### % | HGB Hemoglobin content ([1]; 15 mpk oral daily, Day 29): 97.5 | RBC Red Blood Cell Count ([1]; 15 mpk oral daily, Day 29): 9.72#### 10^12/L | HCT Hematocrit ([1]; 15 mpk oral daily, Day 43): 36.10#### % | HGB Hemoglobin content ([1]; 15 mpk oral daily, Day 43): 94.83 | RBC Red Blood Cell Count ([1]; 15 mpk oral daily, Day 43): 9.45#### 10^12/L | Arithmetic mean of HCT hematocrit [2, 5]: 27.20% | Arithmetic mean of HGB hemoglobin content [2, 5]: 8.47 g/dL | Arithmetic mean of RBC red blood cell count [2, 5]: 6.34 M/μL | Arithmetic mean of HCT hematocrit [2, 6]: 40.05% | Arithmetic mean of HGB hemoglobin content [2, 6]: 11.63 g/dL | Arithmetic mean of RBC red blood cell count [2, 6]: 8.88 M/μL | Arithmetic mean of HCT hematocrit [2, 7]: 41.45% | Arithmetic mean of HGB hemoglobin content [2, 7]: 12.10 g/dL | Arithmetic mean of RBC red blood cell count [2, 7]: 9.09 M/μL | HCT Hematocrit [3, 8]: 28.12% | Hb Hemoglobin content [3, 8]: 9.52 g/dL | RBC Red Blood Cell Count [3, 8]: 6.03 M/μL | HCT Hematocrit [3, 9]: 43.35% | Hb Hemoglobin content [3, 9]: 14.90 g/dL | RBC Red Blood Cell Count [3, 9]: 9.00 M/μL | HCT Hematocrit [3, 10]: 34.36% | Hb Hemoglobin content [3, 10]: 10.97 g/dL | RBC Red Blood Cell Count [3, 10]: 6.33 M/μL | HCT Hematocrit [3, 11]: 37.52% | Hb Hemoglobin content [3, 11]: 11.77 g/dL | RBC Red Blood Cell Count [3, 11]: 7.17 M/μL | HCT Hematocrit [3, 12]: 28.01% | Hb Hemoglobin content [3, 12]: 9.54 g/dL | RBC Red Blood Cell Count [3, 12]: 5.90 M/μL | HCT Hematocrit [3, 13]: 43.32% | Hb Hemoglobin content [3, 13]: 14.37 g/dL | RBC Red Blood Cell Count [3, 13]: 9.01 M/μL | HCT Hematocrit [3, 14]: 43.13% | Hb Hemoglobin content [3, 14]: 13.56 g/dL | RBC Red Blood Cell Count [3, 14]: 7.11 M/μL | HCT Hematocrit [3, 15]: 47.41% | Hb Hemoglobin content [3, 15]: 14.91 g/dL | RBC Red Blood Cell Count [3, 15]: 8.46 M/μL

O=C(O)CNC(=O)C1C(=O)N(C2CCCCC2)C(=O)N(C2CCCCC2)C1=O [Daprodustat, reference compound]
HCT [2, 16]: 31.8% | Hb [2, 16]: 9.1 g/dL | RBC [2, 16]: 6.14 M/μL | HCT [2, 17]: 35.9% | Hb [2, 17]: 10.9 g/dL | RBC [2, 17]: 7.54 M/μL | Mortality ([2]; 30 mpk, oral gavage, TIW, after two weeks of dosing): One mouse in the Daprodustat group including six mice in total died

EPO: EPO positive control; MyBioSource, cat. #: MBS650094, erythropoietin alpha
Improvement of RBC, Hb, or HCT values [4]: Neither Roxadustat nor EPO improved RBC, Hb, or HCT values | Arithmetic mean of HCT hematocrit [2, 18]: 25.02% | Arithmetic mean of HGB hemoglobin content [2, 18]: 7.52 g/dL | Arithmetic mean of RBC red blood cell count [2, 18]: 5.80 M/μL | Arithmetic mean of HCT hematocrit [2, 19]: 23.25% | Arithmetic mean of HGB hemoglobin content [2, 19]: 6.87 g/dL | Arithmetic mean of RBC red blood cell count [2, 19]: 5.43 M/μL | Arithmetic mean of HCT hematocrit [2, 20]: 27.00% | Arithmetic mean of HGB hemoglobin content [2, 20]: 8.37 g/dL | Arithmetic mean of RBC red blood cell count [2, 20]: 6.25 M/μL | Therapeutic effect in the SCD mouse model ([2]; 50 U/30 g, SC injection, TIW, 4 weeks): no therapeutic effect in the SCD mouse model
